# From US20260058014A1, “CHARACTERIZATION OF TUMOR HET[…] A […]” (Foundation Medicine, Inc., priority 2022, published 2026)
# System: EGFR driver alteration-positive NSCLC patients
# Experiment: Progression free survival from start of 1st line Osimertinib in a real-world clinico-genomic NSCLC cohort stratified by tumor heterogeneity score
# Assay type: in vivo, human
# Description: Starting with a patient cohort of 15,035 patients, the data was filtered (for biopsy type and bait set). The data was then filtered to exclude data for patients for whom a computational tumor purity was less than or equal to 20% or for whom a computational tumor purity value was missing. The remaining patient data was divided according to whether the samples were early-stage specimens, late-stage specimens, or of ambiguous origin. For the late-stage specimens, data for patients who were first diagnosed prior to Jan. […] Finally, data was selected for N=135 1st line Osimertinib-treated, EGFR driver alteration-positive NSCLC patients for whom tumor samples were sequenced at most a year prior to start of therapy.
# The group of 135 patients were then divided into three tertiles with 45 patients each. […] For patients without a subsequent line of therapy, the event date was the earliest progression event that occurred more than 14 days after the index date, or the date of death. • Censor date: patients with a subsequent line of therapy were censored at their last clinic note date if it occurred between the index date and the start date of the subsequent line of therapy plus 14 days. […]
structure (smiles),measurement,setting,value
C=CC(=O)Nc1cc(Nc2nccc(-c3cn(C)c4ccccc34)n2)c(OC)cc1N(C)CCN(C)C [Osimertinib],mPFS,"Score category High, EGFR CCF category Low, N=12",6.54
same,mPFS,"Score category Low, EGFR CCF category High, N=39",16.01
